According to the NIST ThermoML archive (doi:10.1016/j.jct.2013.10.038):
Numbers after ± are expanded uncertainties.

What was measured:
[1] = activity coefficient (dimensionless); of the first substance listed, at infinite dilution; xn = mol fraction of the nth substance listed; settings: 101 kPa, Liquid, Chromatography, x1 = 0
[2] = 101.33 kPa, Liquid, Pycnometric method

Row | SMILES | activity coefficient ([1]; 323.15 K) | activity coefficient ([1]; 303.15 K) | activity coefficient ([1]; 313.15 K) | activity coefficient ([1]; 333.15 K) | activity coefficient ([1]; 343.15 K) | activity coefficient ([1]; 353.15 K) | activity coefficient ([1]; 363.15 K) | mass density ([2]; 293.15 K) | mass density ([2]; 303.15 K) | mass density ([2]; 313.15 K) | mass density ([2]; 323.15 K) | mass density ([2]; 333.15 K) | mass density ([2]; 343.15 K)
1 | CC(C)CC(C)(C)C [2,2,4-trimethylpentane] + CCCCCCn1cc[n+](C)c1.O=C([O-])C(F)(F)F | 46.8 ± 4.9 |  |  |  |  |  |  |  |  |  |  |  | 
2 | ClCCl [dichloromethane] + CCCCCCn1cc[n+](C)c1.O=C([O-])C(F)(F)F | 0.67 ± 0.07 | 0.64 ± 0.07 | 0.65 ± 0.07 | 0.68 ± 0.07 | 0.7 ± 0.07 | 0.72 ± 0.08 | 0.73 ± 0.08 |  |  |  |  |  | 
3 | CCc1ccccc1 [ethylbenzene] + CCCCCCn1cc[n+](C)c1.O=C([O-])C(F)(F)F | 4.22 ± 0.44 | 4.1 ± 0.43 | 4.16 ± 0.44 | 4.25 ± 0.45 | 4.32 ± 0.45 | 4.34 ± 0.46 | 4.36 ± 0.46 |  |  |  |  |  | 
4 | CCOC(C)=O [ethyl acetate] + CCCCCCn1cc[n+](C)c1.O=C([O-])C(F)(F)F | 2.91 ± 0.31 | 2.64 ± 0.28 | 2.8 ± 0.29 | 3.02 ± 0.32 | 3.12 ± 0.33 | 3.15 ± 0.33 | 3.44 ± 0.36 |  |  |  |  |  | 
5 | C1=CCCCC1 [cyclohexene] + CCCCCCn1cc[n+](C)c1.O=C([O-])C(F)(F)F | 9.6 ± 1 |  |  |  |  |  |  |  |  |  |  |  | 
6 | c1ccccc1 [benzene] + CCCCCCn1cc[n+](C)c1.O=C([O-])C(F)(F)F | 2.09 ± 0.22 | 2.05 ± 0.22 | 2.07 ± 0.22 | 2.1 ± 0.22 | 2.12 ± 0.22 | 2.13 ± 0.22 | 2.14 ± 0.22 |  |  |  |  |  | 
7 | CC1CCCCC1 [methylcyclohexane] + CCCCCCn1cc[n+](C)c1.O=C([O-])C(F)(F)F | 19.8 ± 2.1 |  |  |  |  |  |  |  |  |  |  |  | 
8 | ClC(Cl)Cl [trichloromethane] + CCCCCCn1cc[n+](C)c1.O=C([O-])C(F)(F)F | 0.22 ± 0.03 | 0.08 ± 0.03 | 0.12 ± 0.03 | 0.3 ± 0.04 | 0.45 ± 0.05 | 0.68 ± 0.07 | 1.06 ± 0.11 |  |  |  |  |  | 
9 | CCO [ethanol] + CCCCCCn1cc[n+](C)c1.O=C([O-])C(F)(F)F | 0.22 ± 0.03 | 0.21 ± 0.03 | 0.22 ± 0.03 | 0.23 ± 0.04 | 0.24 ± 0.04 | 0.26 ± 0.04 | 0.27 ± 0.04 |  |  |  |  |  | 
10 | C1CCCCC1 [cyclohexane] + CCCCCCn1cc[n+](C)c1.O=C([O-])C(F)(F)F | 16.9 ± 1.8 |  |  |  |  |  |  |  |  |  |  |  | 
11 | CCCCCCCCC [nonane] + CCCCCCn1cc[n+](C)c1.O=C([O-])C(F)(F)F | 64.2 ± 6.8 |  |  |  |  |  |  |  |  |  |  |  | 
12 | C1CCOC1 [tetrahydrofuran] + CCCCCCn1cc[n+](C)c1.O=C([O-])C(F)(F)F | 1.98 ± 0.21 | 1.95 ± 0.2 | 1.96 ± 0.21 | 2 ± 0.21 | 2.02 ± 0.21 | 2.02 ± 0.21 | 2.05 ± 0.22 |  |  |  |  |  | 
13 | CCCO [propan-1-ol] + CCCCCCn1cc[n+](C)c1.O=C([O-])C(F)(F)F | 0.25 ± 0.04 |  | 0.24 ± 0.04 | 0.26 ± 0.04 | 0.27 ± 0.04 | 0.29 ± 0.04 | 0.31 ± 0.04 |  |  |  |  |  | 
14 | CC(C)CO [2-methyl-1-propanol] + CCCCCCn1cc[n+](C)c1.O=C([O-])C(F)(F)F | 0.29 ± 0.04 |  |  | 0.3 ± 0.04 | 0.3 ± 0.04 | 0.31 ± 0.04 | 0.31 ± 0.04 |  |  |  |  |  | 
15 | CCCCCCn1cc[n+](C)c1.O=C([O-])C(F)(F)F [1-hexyl-3-methylimidazolium trifluoroacetate] |  |  |  |  |  |  |  | 1153.5 ± 1.1 kg/m3 | 1146.6 ± 1.1 kg/m3 | 1140.7 ± 1.1 kg/m3 | 1134.4 ± 1.1 kg/m3 | 1127.8 ± 1.1 kg/m3 | 1121.6 ± 1.1 kg/m3
16 | CC(C)O [propan-2-ol] + CCCCCCn1cc[n+](C)c1.O=C([O-])C(F)(F)F | 0.36 ± 0.04 | 0.34 ± 0.04 | 0.35 ± 0.04 | 0.38 ± 0.05 | 0.39 ± 0.05 | 0.4 ± 0.05 | 0.42 ± 0.05 |  |  |  |  |  | 

Row | SMILES | activity coefficient ([1]; 323.15 K) | activity coefficient ([1]; 303.15 K) | activity coefficient ([1]; 313.15 K) | activity coefficient ([1]; 333.15 K) | activity coefficient ([1]; 343.15 K) | activity coefficient ([1]; 353.15 K) | activity coefficient ([1]; 363.15 K) | mass density ([2]; 293.15 K) | mass density ([2]; 303.15 K) | mass density ([2]; 313.15 K) | mass density ([2]; 323.15 K) | mass density ([2]; 333.15 K) | mass density ([2]; 343.15 K)
17 | ClCCCl [1,2-dichloroethane] + CCCCCCn1cc[n+](C)c1.O=C([O-])C(F)(F)F | 0.9 ± 0.09 | 0.62 ± 0.07 | 0.75 ± 0.08 | 1.1 ± 0.11 | 1.26 ± 0.13 | 1.62 ± 0.17 | 1.67 ± 0.17 |  |  |  |  |  | 
18 | CC#N [acetonitrile] + CCCCCCn1cc[n+](C)c1.O=C([O-])C(F)(F)F | 1.11 ± 0.11 | 1.01 ± 0.1 | 1.05 ± 0.11 | 1.16 ± 0.12 | 1.22 ± 0.13 | 1.28 ± 0.13 | 1.32 ± 0.14 |  |  |  |  |  | 
19 | CO [methanol] + CCCCCCn1cc[n+](C)c1.O=C([O-])C(F)(F)F | 0.12 ± 0.03 | 0.1 ± 0.03 | 0.11 ± 0.03 | 0.13 ± 0.03 | 0.13 ± 0.03 | 0.16 ± 0.03 | 0.16 ± 0.03 |  |  |  |  |  | 
20 | ClC(Cl)(Cl)Cl [tetrachloromethane] + CCCCCCn1cc[n+](C)c1.O=C([O-])C(F)(F)F | 0.8 ± 0.08 | 0.62 ± 0.07 | 0.7 ± 0.07 | 0.91 ± 0.09 | 1.02 ± 0.1 | 1.19 ± 0.12 | 1.32 ± 0.14 |  |  |  |  |  | 
21 | Cc1ccccc1 [toluene] + CCCCCCn1cc[n+](C)c1.O=C([O-])C(F)(F)F | 3.06 ± 0.32 | 2.97 ± 0.31 | 3.02 ± 0.32 | 3.1 ± 0.33 | 3.14 ± 0.33 | 3.17 ± 0.33 | 3.2 ± 0.34 |  |  |  |  |  | 
22 | Brc1ccccc1 [bromobenzene] + CCCCCCn1cc[n+](C)c1.O=C([O-])C(F)(F)F | 2.24 ± 0.24 | 2.18 ± 0.23 | 2.2 ± 0.23 | 2.29 ± 0.24 | 2.32 ± 0.24 | 2.36 ± 0.25 | 2.41 ± 0.25 |  |  |  |  |  | 
23 | CC(C)=O [acetone] + CCCCCCn1cc[n+](C)c1.O=C([O-])C(F)(F)F | 1.68 ± 0.18 | 1.69 ± 0.18 | 1.69 ± 0.18 | 1.68 ± 0.18 | 1.67 ± 0.17 | 1.67 ± 0.17 | 1.67 ± 0.17 |  |  |  |  |  | 
24 | CCCCCCC [heptane] + CCCCCCn1cc[n+](C)c1.O=C([O-])C(F)(F)F | 27 ± 2.8 |  |  |  |  |  |  |  |  |  |  |  | 
25 | C1COCCO1 [1,4-dioxane] + CCCCCCn1cc[n+](C)c1.O=C([O-])C(F)(F)F | 1.93 ± 0.2 | 1.91 ± 0.2 | 1.92 ± 0.2 | 1.94 ± 0.2 | 1.95 ± 0.2 | 1.95 ± 0.2 | 1.97 ± 0.21 |  |  |  |  |  | 
26 | CCCCCC [hexane] + CCCCCCn1cc[n+](C)c1.O=C([O-])C(F)(F)F | 29 ± 3 |  |  |  |  |  |  |  |  |  |  |  | 
27 | CCCCCCCC [octane] + CCCCCCn1cc[n+](C)c1.O=C([O-])C(F)(F)F | 49.6 ± 5.2 |  |  |  |  |  |  |  |  |  |  |  | 
28 | C=Cc1ccccc1 [styrene] + CCCCCCn1cc[n+](C)c1.O=C([O-])C(F)(F)F | 2.46 ± 0.26 | 2.28 ± 0.24 | 2.39 ± 0.25 | 2.53 ± 0.27 | 2.61 ± 0.27 | 2.68 ± 0.28 | 2.73 ± 0.29 |  |  |  |  |  | 
29 | Cc1ccc(C)cc1 [1,4-dimethylbenzene] + CCCCCCn1cc[n+](C)c1.O=C([O-])C(F)(F)F | 4.24 ± 0.45 | 4.12 ± 0.43 | 4.18 ± 0.44 | 4.29 ± 0.45 | 4.32 ± 0.45 | 4.42 ± 0.46 | 4.43 ± 0.47 |  |  |  |  |  | 
30 | Cc1ccccc1C [1,2-dimethylbenzene] + CCCCCCn1cc[n+](C)c1.O=C([O-])C(F)(F)F | 3.83 ± 0.4 | 3.54 ± 0.37 | 3.67 ± 0.39 | 3.98 ± 0.42 | 4.1 ± 0.43 | 4.13 ± 0.43 | 4.53 ± 0.48 |  |  |  |  |  | 
31 | Clc1ccccc1 [chlorobenzene] + CCCCCCn1cc[n+](C)c1.O=C([O-])C(F)(F)F | 2.24 ± 0.24 | 2.27 ± 0.24 | 2.26 ± 0.24 | 2.22 ± 0.23 | 2.2 ± 0.23 | 2.2 ± 0.23 | 2.2 ± 0.23 |  |  |  |  |  | 
32 | Cc1cccc(C)c1 [1,3-dimethylbenzene] + CCCCCCn1cc[n+](C)c1.O=C([O-])C(F)(F)F | 4.34 ± 0.46 | 4.19 ± 0.44 | 4.25 ± 0.45 | 4.39 ± 0.46 | 4.42 ± 0.46 | 4.53 ± 0.48 | 4.56 ± 0.48 |  |  |  |  |  | 
